Common to all, as to type: physicochemical
A short description of data set [1]: Compatibility test of API and auxiliary materials: content by HPLC. Particulars: for Content: in % (unit assumed). How it is done:
4. Using HPLC method to detect the content of the sample and relevant substances.
The parameters of the HPLC method for the detection of the content and relevant substances are detailed in Table 2 below.
(§1) Placing the samples under experimental conditions of high temperature (60° C.), high humidity (92.5% RH), acceleration (40° C./75% RH) and illumination (visible light 5500 Lux±500 Lux, near ultraviolet light 85 μw/cm2), […] Submitting the samples for relevant indicator testing (test items include appearance, hygroscopic weight gain, content and relevant substances), and comparing the test results with the control samples (raw material).

Data set [2] in a line: Compatibility test of API and auxiliary materials: hygroscopic weight gain. Particulars: opened.
Excerpt: 3. Detecting the hygroscopic weight gain of the sample.
(§2) The commonly used auxiliary materials for oral solid preparations are selected to mix with TJ0113 raw material in different proportions, placed under different conditions, and taken out at different time points respectively to judge the compatibility of the raw and auxiliary materials by using appearance, hygroscopic weight gain, content and relevant substances as indicators. According to the auxiliary material manual, the auxiliary materials used are commonly used auxiliary materials for oral solid preparations, and have been included in the current edition of the Chinese Pharmacopoeia, each auxiliary material has a stable nature. In order to objectively evaluate the compatibility of raw material and auxiliary materials used, the compatibility test was conducted on the raw material and each auxiliary material.
The ratio of the raw and auxiliary materials is set according to the “Basic Technical Guidance Principles for Research on Chemical Drug Preparations” and the preparation specifications, the auxiliary materials with a larger amount (such as lactose, microcrystalline cellulose) are mixed according to the ratio of main drug:diluent=1:5; the auxiliary materials with a moderate amount (such as croscarmellose sodium) are mixed according to the ratio of main drug:disintegrant=1:1; the auxiliary materials with a smaller amount (such as magnesium stearate) are mixed according to the ratio of main drug:lubricant=10:1. The manufacturer information and the ratio of raw and auxiliary materials for the compatibility experiment are shown in Table 1 below:
as §1

Data set [3] in a line: Compatibility test of API and auxiliary materials: appearance. The settings on record: opened.
Excerpt: The experimental steps are as follows:
1. Taking out the sample according to the sampling time point set in the raw material and auxiliary material compatibility scheme (see Table 1).
2. Recording the appearance of the sample taken out. Appearance abnormalities include: (1) caking, (2) liquefaction, (3) discoloration.
as §2
The ratio of the raw and auxiliary materials is set according to the “Basic Technical Guidance Principles for Research on Chemical Drug Preparations” and the preparation specifications, the auxiliary materials with a larger amount (such as lactose, microcrystalline cellulose) are mixed according to the ratio of main drug:diluent=1:5; the auxiliary materials with a moderate amount (such as croscarmellose sodium) are mixed according to the ratio of main drug:disintegrant=1:1; the auxiliary materials with a smaller amount (such as magnesium stearate) are mixed according to the ratio of main drug:lubricant=10:1. The manufacturer information and the ratio of raw and auxiliary materials for the compatibility experiment are shown in Table 1 below: […]

Molecules are shown by their SMILES.

With `O=C(O)C[S+]([O-])c1cc(NS(=O)(=O)c2ccc(Br)cc2)c2ccccc2c1O` (stereo not drawn) [API], the Content in data set [1] (40° C./75% RH (opened), 10 d) stood at 98.9; in data set [1] (40° C./75% RH (opened), 30 d) it was 97.3; in data set [1] (60° C. (opened), 10 d) it was 100.1; in data set [1] (60° C. (opened), 30 d), 101.4; in data set [1] (92.5% RH (opened), 10 d), 97.8; in data set [1] (92.5% RH (opened), 30 d), 99.9. The Content is given as 100.8 in data set [1] (Illumination (opened), 10 d) and 99.7 in data set [1] (Initial). In addition, the Change of content entry in data set [1] (60° C., 92.5% RH, 40° C./75% RH opened, 10 days illumination) is “did not change significantly”. For the same molecule, the Hygroscopic weight gain in data set [2] (40° C./75% RH, 10 d) is −3.6; in data set [2] (40° C./75% RH, 30 d), −4.2; in data set [2] (92.5% RH, 10 d) it was 5.5. The Appearance entry in data set [3] (40° C./75% RH, 30 d) was “gray powder”; in data set [3] (92.5% RH, 30 d), “gray powder”; in data set [3] (illumination, 30 days), “turned into red, and their lower layers did not change color”.
